Experiment [1] relates to BIN2. Nature of the experiment: Immunoblotting of 2-DE of TAP-BIN2 from BL-treated plants. The class given is in vivo, Arabidopsis. As to conditions: 0.25 μM BL, 2 hrs, TAP-BIN2 transgenic plants. The text has this:
Total proteins were extracted from BL-treated or untreated 35S::TAP-BIN2 plants for two-dimensional gel electrophoresis (2-DE) as described previously. The amount of BL-treated and untreated TAP-BIN2 proteins was normalized with Western blot. Equal amount of TAP-BIN2 proteins was separated by 2-DE using an immobilized pH gradient gel strip (7 cm, pH 3-10 non-linear) and 7.5% SDS-PAGE gel. The blots were probed with anti-PAP antibody (Sigma, St. Louis, Mo.).
A general note: A western blot detects proteins with antibodies after separation by electrophoresis.

In experiment [2] the target is T1, BIN2 (Arabidopsis thaliana, UniProt Q39011).
T1 construct: made in house; host or cells: E. coli
T1 sequence (Q39011 1-380): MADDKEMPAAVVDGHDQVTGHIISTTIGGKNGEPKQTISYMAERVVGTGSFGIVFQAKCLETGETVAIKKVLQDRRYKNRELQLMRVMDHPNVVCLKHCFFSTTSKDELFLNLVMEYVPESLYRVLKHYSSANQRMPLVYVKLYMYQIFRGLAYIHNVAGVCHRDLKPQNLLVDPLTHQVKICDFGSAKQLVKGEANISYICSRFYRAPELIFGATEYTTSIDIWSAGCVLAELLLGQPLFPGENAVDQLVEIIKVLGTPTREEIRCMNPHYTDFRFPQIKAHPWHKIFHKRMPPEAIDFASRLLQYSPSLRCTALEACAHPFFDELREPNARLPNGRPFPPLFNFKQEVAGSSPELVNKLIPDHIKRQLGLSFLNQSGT
Description: In vitro BIN2 inhibition assay (BIN2 phosphorylation of BZR1). The following applies: BSU1-YFP immunoprecipitated from plants treated with BL versus untreated plants. The experiment is classed as biochemical. As for the experimental part: In vitro BIN2 inhibition assays were performed by 3 hrs co-incubation of MBP-BZR1, GST BIN2, GST BSU1 and ^32P-γATP or pre-incubation of GST-BIN2 with GST-BSU1 for various time followed by adding MBP-BZR1 and 32P-γATP. The examine activities of partial BSU1, N-terminal Kelch (1-363th amino acid) and C-terminal phosphatase (364-793th amino acid) region were used. GST, GST-BSU1, GSTBSU1-Ketch and GST-BSU1-phosphatase were pre-incubated with GST-BIN2 for 1 hr, and further incubated with MBP-BZR1 and ^32P-γATP for 3 hrs.
To test activities of BSU1-YFP, anti-GFP antibody-Protein A beads were used to immunoprecipitate BSU1-YFP from extracts of BSU1-YFP transgenic plants, and non-transgenic wild type plants were used as control. The beads were incubated with GST-BIN2 or GST bin2-1 for 1 hr, and then the beads were removed. The BSU1-treated GST-BIN2 or GST-bin2-1 was further incubated with MBP-BZR1 and ^32P-γATP for 3 hrs.

Experiment [3] concerns BIN2. Description: pTyr200 of BIN2 in plants after BL treatment. The experiment is classed as in vivo, Arabidopsis. The following applies: in the presence of MG132; 0.2 or 0.25 μM BL. As to the method: (§1) Plant materials were ground with liquid nitrogen and resuspended in IP buffer (50 mM Tris, pH 7.5, 150 mM NaCl, 5% Glycerol, 1% Triton X-100, 1 mM PMSF and 1× protease inhibitor cocktail (Sigma)). Filtered protein extracts were centrifuged at 20,000 g for 10 min and resulting supernatant was incubated with anti-GFP antibody bound Protein A beads or anti-myc agarose beads for 1 hr. Beads were washed 5 times with washing buffer (50 MM Tris, pH 7.5, 150 mM NaCl, 0.2% Triton X-100, 1 mM PMSF and 1× Protease inhibitor cocktail). The beads were resuspended with a small volume of kinase buffer (20 mM Tris, pH 7.5, 1 mM MgCl2, 100 mM NaCl and) mM DTT) and used for in vitro phosphatase assays, or immunoprecipitated proteins were eluted with buffer containing 2% SDS and analyzed by SDS-PAGE and immunoblotting.
GST-BIN2 or GST-bin2-1 was incubated with MBP-BSU1 or BSU1-YFP beads for 3 Ins and subjected to immunoblotting. pTyr200 residue of BIN2 was detected by anti-phospho-GSK3a/f3 (Tyr279/216) monoclonal antibody, 5G-2F (Millipore, Temecula, Calif.) and re-probed with HRP conjugated anti-GST antibody (Santa Cruz Biotechnology, Santa Cruz, Calif.). The det2 plants were treated with 0.2 μM BL after 1 hr incubation with 10 μM MG 132. AntiBIN2 serum was developed in rabbits using GST-BIN2 as an immunogen. Monoclonal anti-GSK3α/β antibody was purchased from Invitrogen (Carlsbad, Calif.).

Experiment [4] relates to BIN2. Description: BIN2-myc / bin2-1-myc protein level in transformed tobacco leaves. The following applies: 1 μM BL for 1 hr. The class given is in vivo. As for the experimental part:
Transformation by Agrobacterium infiltration, observations of subcellular localization and BiFC signal in tobacco or Arabidopsis were performed as described previously 5. Fluorescence of YFP was visualized by using a spinning-disk confocal microscope (Leica Microsystems, Heerbruag, Germany).

The subject of experiment [5] is BIN2. Description: BIN2-myc / bin2-1-myc degradation in transgenic plants. The experiment is classed as in vivo, Arabidopsis. As to the method: as §1
In experiment [6] the test system is AtSK12. Nature of the experiment: AtSK12 protein accumulation in transgenic plants. The experiment is classed as in vivo, Arabidopsis. The following applies: AtSK12-myc plants; BRZ medium for 5 days; BL for 30 min. Also on record: dose or concentration left out as unconfirmed. As for the experimental part: as §1
The subject of experiment [7] is AtSK12. Nature of the experiment: pTyr dephosphorylation of AtSK12 in plants. The class given is in vivo, Arabidopsis. The following applies: 10 μM MG132 then 0.25 μM BL. As to the method:
as §1

The next experiment deals with BSU1 and BIN2. Nature of the experiment: Co-immunoprecipitation of BSU1-YFP and BIN2-myc after BL treatment. The class given is in vivo, Arabidopsis. The following applies: plants grown on BRZ, 10 μM MG-132 1 hr, 0.2 μM BL 15 min. As to the method:
as §1

For experiment [8], the target named is T1, BIN2. Description: PP1 dephosphorylation of GST-tagged BIN2. The experiment is classed as biochemical. As to conditions: PP1 purified from E. coli. As for the experimental part: (§2) It was next examined whether the mammalian homolog to BSU1, PP1, would dephosphorylate BIN2. A GST-tagged BIN2 was isolated from cells and incubated with PP1 purified from E. coli cells expressing the phosphatase.

Another experiment addresses T2, PP1 (Homo sapiens, UniProt P36873).
T2 construct: made in house; host or cells: E. coli
Nature of the experiment: Inhibition of PP1 activity on BIN2. The experiment is classed as biochemical, mammalian. As to the method: as §2

Peptide text beside a SMILES is read from it. * marks the point of attachment. Cbz = O=C(OCc1ccccc1)*

T2 sequence (P36873 whole entry): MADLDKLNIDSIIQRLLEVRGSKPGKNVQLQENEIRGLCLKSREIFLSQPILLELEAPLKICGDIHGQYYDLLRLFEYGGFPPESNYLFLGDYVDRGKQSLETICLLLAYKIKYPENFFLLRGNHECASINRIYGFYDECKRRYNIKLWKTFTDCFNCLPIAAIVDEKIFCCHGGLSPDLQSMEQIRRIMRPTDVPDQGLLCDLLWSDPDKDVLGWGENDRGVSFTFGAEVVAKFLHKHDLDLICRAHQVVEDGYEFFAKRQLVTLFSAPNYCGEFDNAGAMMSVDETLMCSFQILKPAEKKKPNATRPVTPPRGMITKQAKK

For `CC(C)[C@H](C)[C@@H](O)[C@H](O)[C@@H](C)[C@H]1CC[C@H]2[C@@H]3COC(=O)[C@H]4C[C@H](O)[C@H](O)C[C@]4(C)[C@H]3CC[C@]12C` [BL, brassinolide], the “phosphorylation forms of epitope-tagged BIN2 protein” value in the experiment with BIN2 [1] is “caused disappearance of the acidic forms and an increase of the basic forms”. The “BIN2-inhibiting activity of BSU1-YFP from BL-treated plants” value on BIN2 [2] is listed as “more effective inhibition of BIN2 phosphorylation of BZR1”. For the same compound, the “phosphorylation of Tyr200 of wild type BIN2 or BIN2-myc in plants” value in the experiment with BIN2 [3] was “reduced the phosphorylation of Tyr200”. For the same compound, the “level of BIN2 and bin2-1 proteins” value in the experiment with BIN2 [4] was “reduces the level of BIN2 but not bin2-1 proteins”. Also, the “degradation of BIN2 and bin2-1” value in the experiment with BIN2 [5] (transgenic plants, 0.25 μM BL for 30 min) is on record as “induces degradation of BIN2 but not bin2-1”. In the experiment on AtSK12 [6], the AtSK12 protein stability entry was “destabilized”. Also, the “phosphorylation of AtSK12 Tyr233” value in the experiment on AtSK12 [7] is on record as “greatly reduced phosphorylation of AtSK12 Tyr233”. The “interaction of BSU1 and BIN2” value with BSU1 and BIN2 is “BR-induced interaction of BSU1 and BIN2”.

On to `CC(C)C[C@@H](C=O)NC(=O)[C@H](CC(C)C)NC(=O)[C@H](CC(C)C)NC(=O)OCc1ccccc1` [MG132] (Cbz-Leu-Leu-Leu-aldehyde), for which the “BR-induced BIN2 depletion” value in the experiment on BIN2 [5] (proteasome inhibitor, 10 μM) is “prevents BR-induced BIN2 depletion”.

`CC(O)(c1ccccc1)C(Cc1ccc(Cl)cc1)n1cncn1` (stereo not drawn) [brassinazole]: the AtSK12 protein stability entry with AtSK12 [6] is listed as “stabilized”.

For “PP1: mammalian homolog to BSU1, protein phosphatase-1, purified from E. coli”, the “dephosphorylation of BIN2 tyrosine200” value in the experiment with BIN2 [8] was “increased dephosphorylation of BIN2 tyrosine200”.

Turning to manganese chloride, the “enzymatic activity of PP1 on BIN2” value on PP1 is “also inhibited the enxymatic activity of PP1 on BIN2”.

These data come from patent publication US20120322150A1, “Mechanism and Method for Regulating Glycogen Synthase Kinase 3 (GSK3)-Related Kinases” (CARNEGIE INSTITUTION OF WASHINGTON, priority 2009, published 2012).
